Data from patent publication US20130203823A1, “STABLE TOPICAL COMPOSITIONS FOR 1,2,4-THIADIAZOLE DERIVATIVES” (JANSSEN PHARMACEUTICAL, INC., priority 2009, published 2013).

Columns and labels:
[1] = In vitro skin permeation study, cadaver skin finite dose technique, Franz diffusion cell; assay type: in vitro ADME, human
Description: The cadaver skin finite dose technique was used for the studies. Split thickness human cadaver trunk skin was obtained from skin bank and stored in a water-impermeable plastic bag at about −70° C. Prior to each experiment, skin was thawed in water bath at about 37° C., then cut into sections large enough to fit on the Franz diffusion cell. The diffusion cells were mounted in a diffusion apparatus and filled with a receptor solution of ethanol/water/formic acid (25/75/0.3), which was stirred at about 600 RPM and maintained at about 32° C. The skin was mounted onto the diffusion cell, where the stratum corneum side faced the donor compartment and the dermal side faced the receiving compartment. About 10 μl per cm^2 of the composition was applied to the skin using a pipette. The dose was spread throughout the skin surface with a Teflon tip of the pipette. After about 4, 8, 12 and 24 hrs, the receptor solution was removed and replaced with fresh receptor solution. An aliquot was taken for analysis. The skin surface was washed with about 0.5 ml of a solvent mixture of methanol/water/formic acid (90/10/0.3). The solvent mixture was filtered and an aliquot was taken for analysis. Subsequently, the dermis and epidermis were separated and Compound IIa was extracted using the solvent mixture. The solvent mixture was filtered and an aliquot was taken for analysis. Samples were analyzed using HPLC.

[2] = Stability of the compound in the composition on storage, concentration by HPLC versus initial concentration; assay type: physicochemical
From the text: The compositions of the present invention have desired and improved properties, including the extended shelf-life or stability and the suitable commercial production. As used herein, the terms ‘stable composition’, ‘stable formulation’, ‘composition with extended shelf-life’ or variants thereof refer to the compound of Formula I, II, or III (and most preferably Compounds Ia, IIa, and IIIa) in the composition is stable. The stability or shelf-life of the compound may be determined by measuring the concentration and any degradation product of the compound of Formula I, II or III in the compositions using high performance liquid chromatography (HPLC). As commonly referred in the art, the compound is considered to be stable or being stabilized when the concentration of the compound retains at least about 90% to at least about 110%, preferably at least about 95% to at least about 105%, of the original concentration of the compound.
By way of example, the stability of the compound of Formula I, II, or III is determined using HPLC equipped with a temperature-controlled autosampler, a thermostatic column compartment, and an UV detector at about 326 nm (Agilent 1100, Waters alliance HPLC). A Zorbax C18 column is used for analyzing Compound Ia and a YMC-Pack Hydrosphere C18 column is used for analyzing Compound IIa. A binary linear gradient of mobile phases A and B is used. The mobile phase A may consist of about 0.2% trifluroacetic acid in water and the mobile phase B may consist of about 0.2% trifluroacetic acid in methanol. The gradient conditions are provided below.
The stability of Compound Ia was examined by measuring the concentration of Compound Ia using HPLC. The concentration of the compound in the composition stored at various temperatures for a period of time was compared to the initial concentration of the compound prior to storage.

[3] = aqueous gel formulation B, 0.30% w/w Compound IIa
[4] = aqueous gel formulation B, 0.60% w/w Compound IIa
[5] = aqueous gel formulation B, 1.2% w/w Compound IIa
[6] = cream composition E (as titled), 0.30% w/w Compound IIa
[7] = cream composition E (as titled), 0.60% w/w Compound IIa
[8] = cream composition E (as titled), 1.2% w/w Compound IIa
[9] = cream composition E (as titled), 2.4% w/w Compound IIa

COc1ccccc1-c1nc(=Nc2ccccc2)sn1-c1ccccc1OC [Compound IIa, [2-(2-methoxyphenyl)-3-(2-methoxyphenyl)-2H-[1,2,4]-thiadiazol-5-ylidene]-phenylamine]
Skin penetration (in words) ([1]; aqueous gel formulation B): able to penetrate into epidermis, dermis and receptor solution
Total amount permeated into Dermis [1, 3]: 0.004 µg
Total amount permeated into Epidermis [1, 3]: 0.361 µg
Total amount permeated into Receptor solution [1, 3]: 0.020 µg
Total amount permeated into Dermis [1, 4]: 0.007 µg
Total amount permeated into Epidermis [1, 4]: 0.164 µg
Total amount permeated into Receptor solution [1, 4]: 0.045 µg
Total amount permeated into Dermis [1, 5]: 0.007 µg
Total amount permeated into Epidermis [1, 5]: 0.537 µg
Total amount permeated into Receptor solution [1, 5]: 0.074 µg
Total penetration amount in epidermis, dermis and receptor solution versus concentration (in words) ([1]; as the concentration of Compound IIa increased in the formulations): increased
Skin penetration (in words) ([1]; cream composition D): able to penetrate into epidermis, dermis and receptor solution
Total amount permeated into Dermis [1, 6]: 0.003 µg
Total amount permeated into Epidermis [1, 6]: 0.279 µg
Total amount permeated into Receptor solution [1, 6]: 0.015 µg
Total amount permeated into Dermis [1, 7]: 0.015 µg
Total amount permeated into Epidermis [1, 7]: 0.357 µg
Total amount permeated into Receptor solution [1, 7]: 0.025 µg
Total amount permeated into Dermis [1, 8]: 0.014 µg
Total amount permeated into Epidermis [1, 8]: 0.428 µg
Total amount permeated into Receptor solution [1, 8]: 0.025 µg
Total amount permeated into Dermis [1, 9]: 0.028 µg
Total amount permeated into Epidermis [1, 9]: 0.681 µg
Total amount permeated into Receptor solution [1, 9]: 0.070 µg
% of Initial Concentration ([2]; aqueous gel composition B, 0.3% Compound IIa, 12 months, 5° C.): 99.47%
% of Initial Concentration ([2]; aqueous gel composition B, 0.3% Compound IIa, 12 months, 25° C.): 95.60%
% of Initial Concentration ([2]; aqueous gel composition B, 0.3% Compound IIa, 24 months, 5° C.): 97.92%
% of Initial Concentration ([2]; aqueous gel composition B, 0.3% Compound IIa, 24 months, 25° C.): 89.49%
% of Initial Concentration ([2]; aqueous gel composition B, 0.6% Compound IIa, 12 months, 25° C.): 93.90%
% of Initial Concentration ([2]; aqueous gel composition B, 0.6% Compound IIa, 24 months, 5° C.): 97.02%
% of Initial Concentration ([2]; aqueous gel composition B, 0.6% Compound IIa, 24 months, 25° C.): 92.69%
% of Initial Concentration ([2]; aqueous gel composition B, 1.2% Compound IIa, 12 months, 25° C.): 95.49%
% of Initial Concentration ([2]; aqueous gel composition B, 1.2% Compound IIa, 24 months, 5° C.): 97.56%
% of Initial Concentration ([2]; aqueous gel composition B, 1.2% Compound IIa, 24 months, 25° C.): 93.87%
% of Initial Concentration ([2]; aqueous gel composition B, 1.5% Compound IIa, 12 months, 5° C.): 100.68%
% of Initial Concentration ([2]; aqueous gel composition B, 1.5% Compound IIa, 12 months, 25° C.): 99.03%
% of Initial Concentration ([2]; aqueous gel composition B, 2.4% Compound IIa, 12 months, 25° C.): 101.30%
Stability in the composition (in words) ([2]; aqueous gel composition B, various amounts of Compound IIa, ambient condition): stable at ambient condition
Time for which the compound was stable ([2]; cream composition C (so in the source), ambient condition): at least 6 months
Time for which the compound was stable ([2]; cream composition C (so in the source), refrigerated condition): at least 18 months
% of Initial Concentration ([2]; cream composition D, 1.2% Compound IIa, 6 months, 5° C.): 100.0%
% of Initial Concentration ([2]; cream composition D, 1.2% Compound IIa, 6 months, 25° C.): 94.1%
% of Initial Concentration ([2]; cream composition D, 1.2% Compound IIa, 12 months, 5° C.): 98.3%
% of Initial Concentration ([2]; cream composition D, 1.2% Compound IIa, 18 months, 5° C.): 100.8%
% of Initial Concentration ([2]; emulsion composition E, 3 months, 5° C.): 101.40%
% of Initial Concentration ([2]; emulsion composition E, 3 months, 25° C.): 98.01%
% of Initial Concentration ([2]; emulsion composition E, 6 months, 5° C.): 100.11%
% of Initial Concentration ([2]; emulsion composition E, 6 months, 25° C.): 95.61%
% of Initial Concentration ([2]; emulsion composition E, 9 months, 5° C.): 100.20%
% of Initial Concentration ([2]; emulsion composition E, 13 months, 5° C.): 100.54%
Time for which the compound was stable ([2]; emulsion composition E, refrigerated condition): at least 13 months

COc1ccccc1-c1nc(Nc2ccccc2)s[n+]1-c1ccccc1OC.[Br-] [Compound Ia, 2-(2-methoxyphenyl)-3-(2-methoxyphenyl)-5-phenylamino-[1,2,4]-thiadiazol-2-ium]
Stability in the composition (in words) ([2]; aqueous gel composition A, 0.3% Compound Ia, ambient condition): stable at ambient condition
Time for which the compound was stable ([2]; emulsion composition F, refrigerated condition): at least 4 weeks
